Reference: US12338243B2, “P2X7 modulators” (JANSSEN PHARMACEUTICA NV, priority 2014, dated 2025)
Read-outs that look alike come from different tables or passages of the source.

Legend:
P2X7 [1] = target: T1, P2X7 (Homo sapiens, UniProt Q99572); test: Ca2+ flux (FLIPR) in 1321N1 cells expressing recombinant human P2X7 channel; format: cell-based; design: expressed in transfected cells; host or cells: 1321N1 cells; details: 250 μM BzATP
T1 sequence (Q99572 1-595): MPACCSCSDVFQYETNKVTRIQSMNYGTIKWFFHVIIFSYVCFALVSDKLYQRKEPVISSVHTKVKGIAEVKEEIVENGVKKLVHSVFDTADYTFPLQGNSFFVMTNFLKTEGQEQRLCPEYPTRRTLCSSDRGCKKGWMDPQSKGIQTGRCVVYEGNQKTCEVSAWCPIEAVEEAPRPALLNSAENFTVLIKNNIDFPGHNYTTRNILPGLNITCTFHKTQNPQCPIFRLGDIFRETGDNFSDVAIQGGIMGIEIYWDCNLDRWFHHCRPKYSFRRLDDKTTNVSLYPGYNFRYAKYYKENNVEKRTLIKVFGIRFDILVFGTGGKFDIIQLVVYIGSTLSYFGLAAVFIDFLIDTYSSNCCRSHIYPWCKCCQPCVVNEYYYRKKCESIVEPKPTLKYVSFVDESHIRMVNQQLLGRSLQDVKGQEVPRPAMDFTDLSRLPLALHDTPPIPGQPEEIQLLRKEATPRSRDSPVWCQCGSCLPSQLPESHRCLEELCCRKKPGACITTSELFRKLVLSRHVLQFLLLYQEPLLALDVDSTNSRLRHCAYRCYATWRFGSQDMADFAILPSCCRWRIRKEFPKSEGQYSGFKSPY
Outline: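 1321N1 cells expressing recombinant human P2X7, loaded 60 min with Calcium-4 dye in HEPES buffer pH 7.40 (1 mM CaCl2, 1 mM MgCl2), preincubated 30 min with compounds. Fluorescence change recorded 180 seconds after agonist addition.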

rat P2X7 [2] = target: T2, rat P2X7 (Rattus norvegicus, UniProt Q64663); test: Radioligand binding, rat P2X7-1321N1 cell membranes, tritiated A-804598
T2 sequence (Q64663 1-595): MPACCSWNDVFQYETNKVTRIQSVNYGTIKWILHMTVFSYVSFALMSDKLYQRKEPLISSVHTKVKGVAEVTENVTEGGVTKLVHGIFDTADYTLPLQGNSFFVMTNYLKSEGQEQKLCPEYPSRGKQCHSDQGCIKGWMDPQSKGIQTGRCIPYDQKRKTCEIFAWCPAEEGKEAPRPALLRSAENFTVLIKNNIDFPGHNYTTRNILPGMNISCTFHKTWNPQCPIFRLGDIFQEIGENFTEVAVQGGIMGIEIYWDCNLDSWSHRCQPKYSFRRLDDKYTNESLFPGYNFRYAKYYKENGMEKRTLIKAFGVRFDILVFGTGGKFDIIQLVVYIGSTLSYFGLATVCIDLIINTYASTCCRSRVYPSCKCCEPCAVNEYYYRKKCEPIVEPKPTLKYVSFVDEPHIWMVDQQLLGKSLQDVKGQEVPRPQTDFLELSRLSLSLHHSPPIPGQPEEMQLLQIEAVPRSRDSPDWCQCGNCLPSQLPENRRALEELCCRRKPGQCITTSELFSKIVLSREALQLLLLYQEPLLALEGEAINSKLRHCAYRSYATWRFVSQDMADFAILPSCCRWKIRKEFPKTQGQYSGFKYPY
Text: (§1) P2X7 Antagonism in Recombinant Human P2X7 Cells or Recombinant Rat P2X7 Cells: (a) Ca^2+ Flux and (b) Radioligand Binding

P2X7 [3] = target: T1, P2X7; test: Radioligand binding, human P2X7-1321N1 cell membranes, tritiated A-804598
Text: as §1

rat P2X7 [4] = target: T2, rat P2X7; test: Ca2+ flux (FLIPR) in 1321N1 cells expressing recombinant rat P2X7 channel; details: 250 μM BzATP
Experimental: as §1
(a) Ca^2+ flux: 1321N1 cells expressing the recombinant human or rat P2X7 channel was cultured in HyQ DME/(HyClone/Dulbecco's Modified Eagle Medium) high glucose supplemented with 10% Fetal Bovine Serum (FBS) and appropriate selection marker. Cells were seeded at a density of 25000 cells/well (96-well clear bottom black walled plates) in 100 μl volume/well. On the day of the experiment, cell plates were washed with assay buffer, containing (in mM): 130 NaCl, 2 KCl, 1 CaCl2), 1 MgCl2, 10 HEPES, 5 glucose; pH 7.40 and 300 mOs. After the wash, cells were loaded with the Calcium-4 dye (Molecular Device) and incubated in the dark for 60 minutes. Test compounds were prepared at 250× the test concentration in neat DMSO. Intermediate 96-well compound plates were prepared by transferring 1.2 μL of the compound into 300 μL of assay buffer. A further 3× dilution occurred when transferring 50 μL/well of the compound plate to 100 μL/well in the cell plate. Cells were incubated with test compounds and dye for 30 minutes. […] The fluorescence change was measured 180 seconds after adding the agonist.

Row | IC50 (P2X7 [1]) [nM] | Ki (rat P2X7 [2]) [nM] | Ki (P2X7 [3]) [nM] | IC50 (rat P2X7 [4]; FLIPR (rat) IC50 (μM)) [µM] | IC50 (rat P2X7 [4]; read-out: FLIPR (rat) IC50) [µM] | SMILES
1 | 52.9 | 25.1 | 28.8 | 0.542 |  | O=C(c1cccc(C(F)(F)F)c1Cl)N1CCn2c(nnc2C(F)(F)F)C1c1ccccc1 (racemic) [Example 75, (±)-(2-chloro-3-(trifluoromethyl)phenyl)(8-phenyl-3-(trifluoromethyl)-5,6-dihydro-[1,2,4]triazolo[4,3-a]pyrazin-7(8H)-yl)methanone]
2 | 9930 | 56.2 |  | 7.67 |  | C[C@H]1Cn2c(nnc2-c2ccccc2F)CN1C(=O)c1cccc(Cl)c1Cl [Example 38, (S)-(2,3-dichlorophenyl)(3-(2-fluorophenyl)-6-methyl-5,6-dihydro-[1,2,4]triazolo[4,3-a]pyrazin-7(8H)-yl)methanone]
3 | 2130 | 18.6 |  | 9.23 |  | C[C@H]1Cn2c(nnc2-c2cccc(F)c2)CN1C(=O)c1cccc(C(F)(F)F)c1Cl [Example 42, (S)-(2-chloro-3-(trifluoromethyl)phenyl)(3-(3-fluorophenyl)-6-methyl-5,6-dihydro-[1,2,4]triazolo[4,3-a]pyrazin-7(8H)-yl)methanone]
4 | 9710 | 133 |  | > 10 |  | C[C@H]1Cn2c(nnc2-c2cccc(F)c2)CN1C(=O)c1ccc(F)c(Cl)c1Cl [Example 43, (S)-(2,3-dichloro-4-fluorophenyl)(3-(3-fluorophenyl)-6-methyl-5,6-dihydro-[1,2,4]triazolo[4,3-a]pyrazin-7(8H)-yl)methanone]
5 | 2.7 | 2 | 7.9 | 0.0269 |  | Cc1nnc2n1CCN(C(=O)c1cccc(C(F)(F)F)c1Cl)[C@H]2c1ccccc1 [Example 66, (S)-(2-chloro-3-(trifluoromethyl)phenyl)(3-methyl-8-phenyl-5,6-dihydro-[1,2,4]triazolo[4,3-a]pyrazin-7(8H)-yl)methanone]
6 | 6.9 | 4 | 12.6 | 0.0077 |  | C[C@H]1Cn2c(nnc2-c2ccc(F)cn2)CN1C(=O)c1cccc(C(F)(F)F)c1Cl [Example 70, (S)-(2-chloro-3-(trifluoromethyl)phenyl)(3-(5-fluoropyridin-2-yl)-6-methyl-5,6-dihydro-[1,2,4]triazolo[4,3-a]pyrazin-7(8H)-yl)methanone]
7 | 8590 | 178 |  | > 10 |  | COc1ccc(-c2nnc3n2C[C@H](C)N(C(=O)c2cccc(Cl)c2Cl)C3)nc1 [Example 72, (S)-(2,3-dichlorophenyl)(3-(5-methoxypyridin-2-yl)-6-methyl-5,6-dihydro-[1,2,4]triazolo[4,3-a]pyrazin-7(8H)-yl)methanone]
8 | 6.7 | 5 | 10 | 0.0168 |  | O=C(c1cccc(C(F)(F)F)c1Cl)N1CCn2c(C3CC3)nnc2[C@@H]1c1ccccc1 [Example 76, (S)-(2-chloro-3-(trifluoromethyl)phenyl)(3-cyclopropyl-8-phenyl-5,6-dihydro-[1,2,4]triazolo[4,3-a]pyrazin-7(8H)-yl)methanone]
9 | 11.3 | 8.9 | 50.1 |  | 0.027 | CC(C)(C)c1nnc2n1CCN(C(=O)c1cccc(C(F)(F)F)c1Cl)[C@@H]2c1ccccc1 [Example 81, (R)-(3-(tert-butyl)-8-phenyl-5,6-dihydro-[1,2,4]triazolo[4,3-a]pyrazin-7(8H)-yl)(2-chloro-3-(trifluoromethyl)phenyl)methanone]
10 | 2.3 | 10 | 12.6 |  | 0.0585 | CCc1nnc2n1CCN(C(=O)c1cccc(C(F)(F)F)c1Cl)[C@@H]2c1ccccc1 [Example 86, (R)-(2-chloro-3-(trifluoromethyl)phenyl)(3-ethyl-8-phenyl-5,6-dihydro-[1,2,4]triazolo[4,3-a]pyrazin-7(8H)-yl)methanone]
11 | 10.2 | 25.1 | 20 | 0.166 |  | CC(C)c1nnc2n1CCN(C(=O)c1cccc(C(F)(F)F)c1Cl)[C@@H]2c1ccccc1 [Example 88, (R)-(2-chloro-3-(trifluoromethyl)phenyl)(3-isopropyl-8-phenyl-5,6-dihydro-[1,2,4]triazolo[4,3-a]pyrazin-7(8H)-yl)methanone]
12 | 8.1 | 6.3 | 15.8 | 0.0178 |  | O=C(c1cccc(C(F)(F)F)c1Cl)N1CCn2c(C3CCC3)nnc2[C@H]1c1ccccc1 [Example 93, (R)-(2-chloro-3-(trifluoromethyl)phenyl)(3-cyclobutyl-8-phenyl-5,6-dihydro-[1,2,4]triazolo[4,3-a]pyrazin-7(8H)-yl)methanone]
13 | 7.8 | 4.7 | 12.6 | 0.0428 |  | O=C(c1cccc(C(F)(F)F)c1Cl)N1CCn2c(nnc2C(F)(F)F)[C@H]1c1ccccc1 [Example 97, (R)-(2-chloro-3-(trifluoromethyl)phenyl)(8-phenyl-3-(trifluoromethyl)-5,6-dihydro-[1,2,4]triazolo[4,3-a]pyrazin-7(8H)-yl)methanone]
14 | 10.5 | 29.5 | 10 | 0.488 |  | O=C(c1cccc(Cl)c1Cl)N1CCn2c(nnc2C(F)(F)F)[C@H]1c1ccccc1 [Example 102, (R)-(2,3-dichlorophenyl)(8-phenyl-3-(trifluoromethyl)-5,6-dihydro-[1,2,4]triazolo[4,3-a]pyrazin-7(8H)-yl)methanone]
15 | 8.6 | 10 | 5.8 | 0.0816 |  | O=C(c1cccc(C(F)(F)F)c1Cl)N1CCn2c(C(F)F)nnc2[C@H]1c1ccccc1 [Example 108, (R)-(2-chloro-3-(trifluoromethyl)phenyl)(3-(difluoromethyl)-8-phenyl-5,6-dihydro-[1,2,4]triazolo[4,3-a]pyrazin-7(8H)-yl)methanone]
16 | 3.4 | 16.6 | 7.9 | 0.441 |  | O=C(c1cccc(Cl)c1Cl)N1CCn2c(C(F)F)nnc2[C@H]1c1ccccc1 [Example 110, (R)-(2,3-dichlorophenyl)(3-(difluoromethyl)-8-phenyl-5,6-dihydro-[1,2,4]triazolo[4,3-a]pyrazin-7(8H)-yl)methanone]
